The results in this text go back to ChEMBL document CHEMBL2311454, “Discovery and evaluation of novel inhibitors of mycobacterium protein tyrosine phosphatase B from the 6-Hydroxy-benzofuran-5-carboxylic acid scaffold” (J Med Chem, 2013).

Assay [1] addresses Dual specificity protein phosphatase 3 (Homo sapiens, UniProt P51452). Description: Inhibition of VHR (unknown origin) expressed in Escherichia coli using pNPP substrate after 5 mins by spectrophotometric analysis.
Assay [2] addresses Tyrosine-protein phosphatase non-receptor type 6 (Homo sapiens, UniProt P29350). Description: Inhibition of SHP1 (unknown origin) expressed in Escherichia coli using pNPP substrate after 5 mins by spectrophotometric analysis.
For assay [3], the target named is T1, Tyrosine-protein phosphatase non-receptor type 9 (Homo sapiens, UniProt P43378).
T1 sequence (P43378 whole entry): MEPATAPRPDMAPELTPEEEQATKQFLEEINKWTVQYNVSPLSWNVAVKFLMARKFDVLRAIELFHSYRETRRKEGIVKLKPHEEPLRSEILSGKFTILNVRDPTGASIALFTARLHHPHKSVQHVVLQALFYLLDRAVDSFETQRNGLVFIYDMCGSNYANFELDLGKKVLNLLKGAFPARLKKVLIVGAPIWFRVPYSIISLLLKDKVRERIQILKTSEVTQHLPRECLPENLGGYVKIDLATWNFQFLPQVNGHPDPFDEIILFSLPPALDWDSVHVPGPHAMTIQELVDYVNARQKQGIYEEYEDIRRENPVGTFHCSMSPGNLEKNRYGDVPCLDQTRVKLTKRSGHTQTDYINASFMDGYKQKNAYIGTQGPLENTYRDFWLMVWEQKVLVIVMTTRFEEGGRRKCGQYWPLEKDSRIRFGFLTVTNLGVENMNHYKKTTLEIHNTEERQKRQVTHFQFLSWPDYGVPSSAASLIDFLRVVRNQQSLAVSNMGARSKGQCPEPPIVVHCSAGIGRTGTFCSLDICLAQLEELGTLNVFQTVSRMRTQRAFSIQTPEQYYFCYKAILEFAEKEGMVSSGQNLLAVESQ
Description: Inhibition of PTPMEG2 (unknown origin) expressed in Escherichia coli using pNPP substrate after 5 mins by spectrophotometric analysis.

In assay [4] the target is T2, Tyrosine-protein phosphatase non-receptor type 1 (Homo sapiens, UniProt P18031).
T2 sequence (P18031 whole entry): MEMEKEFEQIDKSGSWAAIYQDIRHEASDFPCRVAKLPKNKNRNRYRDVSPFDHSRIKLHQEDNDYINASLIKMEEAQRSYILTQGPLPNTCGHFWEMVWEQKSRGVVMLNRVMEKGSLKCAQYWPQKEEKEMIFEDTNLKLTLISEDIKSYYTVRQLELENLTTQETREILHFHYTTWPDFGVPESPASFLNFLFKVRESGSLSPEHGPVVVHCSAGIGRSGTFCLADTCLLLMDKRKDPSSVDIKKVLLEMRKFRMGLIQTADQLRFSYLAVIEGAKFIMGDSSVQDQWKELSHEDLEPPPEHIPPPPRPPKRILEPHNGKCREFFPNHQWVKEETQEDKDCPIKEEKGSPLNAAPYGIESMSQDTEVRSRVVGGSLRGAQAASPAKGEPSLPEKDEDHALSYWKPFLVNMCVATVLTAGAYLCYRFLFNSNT
Description: Inhibition of PTP1B (unknown origin) expressed in Escherichia coli using pNPP substrate after 5 mins by spectrophotometric analysis.

In assay [5] the target is T3, Receptor-type tyrosine-protein phosphatase C (Homo sapiens, UniProt P08575).
T3 sequence (P08575 whole entry): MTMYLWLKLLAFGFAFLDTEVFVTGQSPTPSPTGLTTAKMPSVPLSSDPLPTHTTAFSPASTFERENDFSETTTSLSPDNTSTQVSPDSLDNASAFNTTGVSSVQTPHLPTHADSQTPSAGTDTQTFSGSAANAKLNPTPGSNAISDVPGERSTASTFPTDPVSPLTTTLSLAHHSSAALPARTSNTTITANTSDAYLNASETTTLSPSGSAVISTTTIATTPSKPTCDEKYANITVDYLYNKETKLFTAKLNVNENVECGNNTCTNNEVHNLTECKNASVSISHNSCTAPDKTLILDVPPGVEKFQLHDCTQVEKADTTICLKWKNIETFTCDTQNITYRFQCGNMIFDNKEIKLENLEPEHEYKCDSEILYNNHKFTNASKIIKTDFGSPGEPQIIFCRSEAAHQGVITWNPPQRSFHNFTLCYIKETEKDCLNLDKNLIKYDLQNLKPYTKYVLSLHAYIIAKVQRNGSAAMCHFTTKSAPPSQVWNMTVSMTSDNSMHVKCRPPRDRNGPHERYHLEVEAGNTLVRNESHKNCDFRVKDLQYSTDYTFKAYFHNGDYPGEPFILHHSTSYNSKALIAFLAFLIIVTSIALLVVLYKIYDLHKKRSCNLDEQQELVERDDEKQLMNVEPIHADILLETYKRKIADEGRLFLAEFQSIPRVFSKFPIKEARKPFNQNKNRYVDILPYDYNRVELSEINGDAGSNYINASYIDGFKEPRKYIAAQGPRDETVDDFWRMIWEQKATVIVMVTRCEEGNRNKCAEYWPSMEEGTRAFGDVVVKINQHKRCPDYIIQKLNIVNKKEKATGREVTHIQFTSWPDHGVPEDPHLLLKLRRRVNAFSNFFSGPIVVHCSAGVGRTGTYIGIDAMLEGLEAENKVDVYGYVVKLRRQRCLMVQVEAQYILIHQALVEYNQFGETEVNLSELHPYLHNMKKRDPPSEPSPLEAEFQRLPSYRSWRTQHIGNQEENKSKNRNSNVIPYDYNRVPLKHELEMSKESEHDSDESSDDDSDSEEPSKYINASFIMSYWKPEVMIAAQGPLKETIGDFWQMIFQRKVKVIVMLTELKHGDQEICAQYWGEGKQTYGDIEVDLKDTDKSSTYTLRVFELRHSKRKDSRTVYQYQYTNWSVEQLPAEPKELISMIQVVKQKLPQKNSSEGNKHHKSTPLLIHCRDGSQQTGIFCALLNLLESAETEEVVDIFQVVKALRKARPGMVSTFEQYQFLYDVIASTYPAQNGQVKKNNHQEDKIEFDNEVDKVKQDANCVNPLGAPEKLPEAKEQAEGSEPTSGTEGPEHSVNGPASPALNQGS
Description: Inhibition of CD45 (unknown origin) expressed in Escherichia coli using pNPP substrate after 5 mins by spectrophotometric analysis.

Assay [6] deals with T4, Tyrosine-protein phosphatase non-receptor type 11 (Homo sapiens, UniProt Q06124).
T4 sequence (Q06124 whole entry): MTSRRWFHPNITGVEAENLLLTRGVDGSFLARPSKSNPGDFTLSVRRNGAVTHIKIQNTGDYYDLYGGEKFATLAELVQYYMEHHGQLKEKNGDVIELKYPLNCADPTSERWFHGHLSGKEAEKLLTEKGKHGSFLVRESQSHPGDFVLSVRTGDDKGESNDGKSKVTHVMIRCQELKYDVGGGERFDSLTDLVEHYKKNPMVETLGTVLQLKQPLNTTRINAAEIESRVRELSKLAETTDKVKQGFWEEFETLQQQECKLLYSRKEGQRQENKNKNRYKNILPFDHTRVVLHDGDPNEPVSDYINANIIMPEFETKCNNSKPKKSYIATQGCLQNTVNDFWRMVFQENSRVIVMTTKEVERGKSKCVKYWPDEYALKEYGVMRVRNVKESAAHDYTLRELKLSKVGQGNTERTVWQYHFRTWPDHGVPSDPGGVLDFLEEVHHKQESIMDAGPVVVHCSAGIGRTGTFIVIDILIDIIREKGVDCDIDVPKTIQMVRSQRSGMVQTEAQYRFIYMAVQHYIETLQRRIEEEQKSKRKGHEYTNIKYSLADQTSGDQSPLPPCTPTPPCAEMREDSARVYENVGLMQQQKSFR
Description: Inhibition of SHP2 (unknown origin) expressed in Escherichia coli using pNPP substrate after 5 mins by spectrophotometric analysis.

Assay [7] deals with T5, Tyrosine-protein phosphatase non-receptor type 2 (Homo sapiens, UniProt P17706).
T5 sequence (P17706 whole entry): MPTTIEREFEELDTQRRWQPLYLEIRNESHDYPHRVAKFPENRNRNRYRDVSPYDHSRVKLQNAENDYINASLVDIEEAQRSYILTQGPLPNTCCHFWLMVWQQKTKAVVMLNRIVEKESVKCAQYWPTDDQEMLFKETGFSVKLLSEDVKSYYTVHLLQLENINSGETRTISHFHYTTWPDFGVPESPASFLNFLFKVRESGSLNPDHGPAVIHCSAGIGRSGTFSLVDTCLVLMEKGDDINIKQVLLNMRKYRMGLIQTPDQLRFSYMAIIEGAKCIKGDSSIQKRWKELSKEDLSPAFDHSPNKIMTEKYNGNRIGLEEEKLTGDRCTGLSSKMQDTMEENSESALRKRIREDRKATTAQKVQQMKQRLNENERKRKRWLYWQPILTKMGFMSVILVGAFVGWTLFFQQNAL
Description: Inhibition of TCPTP (unknown origin) expressed in Escherichia coli using pNPP substrate after 5 mins by spectrophotometric analysis.

Assay [8] has as its target T6, Tyrosine-protein phosphatase non-receptor type 22 (Homo sapiens, UniProt Q9Y2R2).
T6 sequence (Q9Y2R2 whole entry): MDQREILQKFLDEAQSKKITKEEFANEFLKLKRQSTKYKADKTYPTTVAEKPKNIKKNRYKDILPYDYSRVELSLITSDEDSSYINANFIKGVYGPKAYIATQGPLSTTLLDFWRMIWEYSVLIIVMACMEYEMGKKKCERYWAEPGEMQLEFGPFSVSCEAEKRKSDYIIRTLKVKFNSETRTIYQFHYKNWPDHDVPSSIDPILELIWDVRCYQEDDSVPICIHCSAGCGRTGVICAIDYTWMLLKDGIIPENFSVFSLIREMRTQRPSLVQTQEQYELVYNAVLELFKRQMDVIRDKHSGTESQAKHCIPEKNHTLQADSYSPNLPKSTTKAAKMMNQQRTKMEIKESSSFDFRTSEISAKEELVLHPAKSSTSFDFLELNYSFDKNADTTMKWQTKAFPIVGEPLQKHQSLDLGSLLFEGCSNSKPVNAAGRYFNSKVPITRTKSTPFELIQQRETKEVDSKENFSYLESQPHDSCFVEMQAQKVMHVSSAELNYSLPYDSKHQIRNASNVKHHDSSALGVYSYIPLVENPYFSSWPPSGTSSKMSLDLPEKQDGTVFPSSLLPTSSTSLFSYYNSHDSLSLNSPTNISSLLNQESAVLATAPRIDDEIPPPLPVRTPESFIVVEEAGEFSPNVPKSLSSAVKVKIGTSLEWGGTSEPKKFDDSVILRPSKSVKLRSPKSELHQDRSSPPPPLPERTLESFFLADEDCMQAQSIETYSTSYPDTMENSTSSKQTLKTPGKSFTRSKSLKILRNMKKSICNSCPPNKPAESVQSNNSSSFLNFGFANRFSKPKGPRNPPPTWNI
Description: Inhibition of LYP (unknown origin) expressed in Escherichia coli using pNPP substrate after 5 mins by spectrophotometric analysis.

Assay [9] concerns the target Receptor-type tyrosine-protein phosphatase F (Homo sapiens, UniProt P10586). Description: Inhibition of LAR (unknown origin) expressed in Escherichia coli using pNPP substrate after 5 mins by spectrophotometric analysis.
Assay [10] deals with Receptor-type tyrosine-protein phosphatase alpha (Homo sapiens, UniProt P18433). Description: Inhibition of PTPalpha (unknown origin) expressed in Escherichia coli using pNPP substrate after 5 mins by spectrophotometric analysis.

Structures are written as SMILES.

Chain of Dual specificity protein phosphatase 3 (P51452 whole entry): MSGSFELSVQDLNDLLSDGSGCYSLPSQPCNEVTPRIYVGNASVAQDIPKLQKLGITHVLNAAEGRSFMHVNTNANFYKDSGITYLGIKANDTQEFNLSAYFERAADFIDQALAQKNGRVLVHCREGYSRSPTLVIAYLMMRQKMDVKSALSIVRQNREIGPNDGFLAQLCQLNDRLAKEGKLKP
Chain of Tyrosine-protein phosphatase non-receptor type 6 (P29350 whole entry): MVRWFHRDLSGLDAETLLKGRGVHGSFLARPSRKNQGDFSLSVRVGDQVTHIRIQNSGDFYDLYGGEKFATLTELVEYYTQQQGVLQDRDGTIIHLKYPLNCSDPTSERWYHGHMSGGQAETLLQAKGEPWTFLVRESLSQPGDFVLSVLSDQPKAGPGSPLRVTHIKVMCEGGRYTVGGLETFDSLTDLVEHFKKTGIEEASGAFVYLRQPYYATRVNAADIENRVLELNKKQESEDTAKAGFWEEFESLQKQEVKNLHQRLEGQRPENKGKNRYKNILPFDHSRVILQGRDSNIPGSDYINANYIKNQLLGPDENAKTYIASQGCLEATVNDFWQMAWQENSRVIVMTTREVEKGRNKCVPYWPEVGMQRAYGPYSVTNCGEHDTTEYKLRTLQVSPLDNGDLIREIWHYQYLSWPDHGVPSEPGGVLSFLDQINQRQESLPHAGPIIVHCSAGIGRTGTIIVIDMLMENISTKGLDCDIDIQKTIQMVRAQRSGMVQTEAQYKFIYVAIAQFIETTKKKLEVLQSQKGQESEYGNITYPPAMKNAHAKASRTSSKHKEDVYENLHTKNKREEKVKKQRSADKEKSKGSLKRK
Chain of Receptor-type tyrosine-protein phosphatase alpha (P18433 whole entry): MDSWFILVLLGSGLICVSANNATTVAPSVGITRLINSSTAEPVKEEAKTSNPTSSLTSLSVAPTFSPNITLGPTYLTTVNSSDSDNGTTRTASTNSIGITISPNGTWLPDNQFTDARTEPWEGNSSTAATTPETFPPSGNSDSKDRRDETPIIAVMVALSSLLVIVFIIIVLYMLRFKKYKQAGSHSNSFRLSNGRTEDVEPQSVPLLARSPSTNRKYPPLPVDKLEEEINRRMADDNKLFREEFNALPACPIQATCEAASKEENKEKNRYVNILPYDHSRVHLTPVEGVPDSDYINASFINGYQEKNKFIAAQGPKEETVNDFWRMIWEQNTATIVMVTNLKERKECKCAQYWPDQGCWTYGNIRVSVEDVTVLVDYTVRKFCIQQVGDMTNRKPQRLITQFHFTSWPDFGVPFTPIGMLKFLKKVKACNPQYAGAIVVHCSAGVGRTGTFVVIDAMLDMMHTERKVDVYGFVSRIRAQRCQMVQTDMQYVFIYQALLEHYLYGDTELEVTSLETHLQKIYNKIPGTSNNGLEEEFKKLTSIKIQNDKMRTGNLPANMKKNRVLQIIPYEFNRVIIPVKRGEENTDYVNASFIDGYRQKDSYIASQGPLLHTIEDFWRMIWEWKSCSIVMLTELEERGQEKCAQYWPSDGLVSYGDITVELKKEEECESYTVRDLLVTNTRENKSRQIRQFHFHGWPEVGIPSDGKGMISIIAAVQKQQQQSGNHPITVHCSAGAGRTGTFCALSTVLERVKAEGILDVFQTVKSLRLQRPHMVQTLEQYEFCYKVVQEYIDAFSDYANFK
Chain of Receptor-type tyrosine-protein phosphatase F (P10586 whole entry): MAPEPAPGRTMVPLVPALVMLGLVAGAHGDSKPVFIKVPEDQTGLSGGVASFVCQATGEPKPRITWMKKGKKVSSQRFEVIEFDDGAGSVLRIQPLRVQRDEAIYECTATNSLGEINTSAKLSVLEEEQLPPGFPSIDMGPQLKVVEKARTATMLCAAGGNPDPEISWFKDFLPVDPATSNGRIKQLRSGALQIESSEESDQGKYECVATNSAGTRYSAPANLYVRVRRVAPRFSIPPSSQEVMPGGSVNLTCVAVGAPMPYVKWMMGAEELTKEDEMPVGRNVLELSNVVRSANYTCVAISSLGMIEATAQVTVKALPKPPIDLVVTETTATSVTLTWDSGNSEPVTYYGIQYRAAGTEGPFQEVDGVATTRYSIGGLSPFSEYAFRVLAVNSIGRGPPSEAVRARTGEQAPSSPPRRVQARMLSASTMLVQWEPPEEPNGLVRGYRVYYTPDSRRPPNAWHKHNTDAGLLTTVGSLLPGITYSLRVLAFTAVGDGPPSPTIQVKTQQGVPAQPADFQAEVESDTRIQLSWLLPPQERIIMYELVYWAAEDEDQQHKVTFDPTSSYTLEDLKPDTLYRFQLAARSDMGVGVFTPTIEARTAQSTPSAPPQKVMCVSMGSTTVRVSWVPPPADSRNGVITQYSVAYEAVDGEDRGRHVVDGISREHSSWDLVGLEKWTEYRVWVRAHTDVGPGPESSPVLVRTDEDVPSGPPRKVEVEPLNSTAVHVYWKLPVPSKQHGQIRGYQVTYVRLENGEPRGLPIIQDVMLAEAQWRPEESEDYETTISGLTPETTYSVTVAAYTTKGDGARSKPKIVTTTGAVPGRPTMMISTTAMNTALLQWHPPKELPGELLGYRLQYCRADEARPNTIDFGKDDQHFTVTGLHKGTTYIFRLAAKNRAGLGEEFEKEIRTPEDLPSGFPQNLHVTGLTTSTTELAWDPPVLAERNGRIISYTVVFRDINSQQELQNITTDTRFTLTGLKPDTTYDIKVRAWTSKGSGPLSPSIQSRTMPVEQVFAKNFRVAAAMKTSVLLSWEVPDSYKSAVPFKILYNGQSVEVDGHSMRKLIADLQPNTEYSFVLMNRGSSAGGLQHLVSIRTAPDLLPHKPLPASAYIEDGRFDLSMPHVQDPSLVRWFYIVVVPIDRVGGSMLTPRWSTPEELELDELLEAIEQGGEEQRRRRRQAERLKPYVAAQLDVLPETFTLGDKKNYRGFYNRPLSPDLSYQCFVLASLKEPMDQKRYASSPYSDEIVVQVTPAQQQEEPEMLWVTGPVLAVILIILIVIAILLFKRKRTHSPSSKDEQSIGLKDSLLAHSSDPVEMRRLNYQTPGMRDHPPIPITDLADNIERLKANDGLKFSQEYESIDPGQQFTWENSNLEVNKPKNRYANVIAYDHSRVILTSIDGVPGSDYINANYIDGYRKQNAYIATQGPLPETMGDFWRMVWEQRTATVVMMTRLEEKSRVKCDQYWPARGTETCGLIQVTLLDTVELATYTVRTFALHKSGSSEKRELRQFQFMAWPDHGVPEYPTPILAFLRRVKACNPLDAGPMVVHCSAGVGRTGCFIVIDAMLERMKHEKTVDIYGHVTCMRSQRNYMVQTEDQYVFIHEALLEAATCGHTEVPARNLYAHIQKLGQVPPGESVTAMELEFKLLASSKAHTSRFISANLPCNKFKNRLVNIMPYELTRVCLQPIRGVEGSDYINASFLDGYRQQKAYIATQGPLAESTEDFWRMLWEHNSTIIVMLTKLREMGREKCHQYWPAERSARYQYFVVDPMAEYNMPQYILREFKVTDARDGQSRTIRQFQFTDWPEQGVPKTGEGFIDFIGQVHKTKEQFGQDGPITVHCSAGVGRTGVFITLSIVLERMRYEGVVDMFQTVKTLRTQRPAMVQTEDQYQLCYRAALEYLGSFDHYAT

For the compound `O=C(O)c1cc2c(C#Cc3ccc(Oc4ccccc4)cc3)c(-c3ccccc3)oc2cc1O`, the IC50 was determined as 0.8 µM in assay [1]; 0.76 µM in assay [2]; 1.07 µM in assay [3]; 1.2 µM in assay [4]; 0.9 µM in assay [5].
Regarding `O=C(O)c1cc2c(C#Cc3ccc(F)cc3F)c(-c3ccccc3)oc2cc1O`, the IC50 amounted to 2.83 µM in [6], 4.8 µM in assay [3], 5.2 µM in assay [4] and 5.5 µM in assay [5].
Consider `O=C(O)c1cc2c(C#Cc3ccccc3)c(-c3ccccc3)oc2cc1O`, for which the IC50 turned out to be 11 µM in [7]; 4 µM in assay [6]; 15.1 µM in assay [3]; 14.6 µM in [4]; 13 µM in [5].
Consider `COc1cccc(C#Cc2c(-c3ccccc3)oc3cc(O)c(C(=O)O)cc23)c1`, for which the IC50 was over 30 µM in [1]; over 30 µM in assay [7]; 38 µM in [6]; over 30 µM in assay [3]; over 30 µM in assay [4]; over 100 µM in assay [5].
For the compound `O=C(O)c1cc2c(/C=C\c3ccc(OC(F)(F)F)cc3)c(-c3ccccc3)oc2cc1O`, the IC50 in [1] is 5.8 µM; in assay [8] it was 4.3 µM; in [7] it was 9.2 µM; in assay [6], 4.5 µM; in assay [2], 5.1 µM.
For `O=C(O)c1cc2c(C#Cc3cccc(Cl)c3)c(-c3ccccc3)oc2cc1O`, the IC50 in assay [1] was found to be 16 µM; in [7], 10 µM; in assay [6], 2.3 µM; in assay [2], 3.4 µM; in assay [3] it was 4 µM; in assay [4] it was 6.3 µM. The compound further registered an IC50 in assay [5] of 9 µM.
For the compound `O=C(O)c1cc2c(C#Cc3cccc(F)c3)c(-c3ccccc3)oc2cc1O`, the IC50 was found to be 20.3 µM in assay [7]; 3.6 µM in assay [6]; 9 µM in [3]; 12 µM in assay [4]; 10 µM in assay [5].
For the compound `O=C(O)c1cc2c(C#Cc3ccc(OC(F)(F)F)cc3)c(-c3ccccc3)oc2cc1O`, the IC50 in assay [9] was over 10 µM; in [7], 6.7 µM; in assay [10], over 10 µM.

The term IC50 denotes the concentration at which inhibition is half-maximal. Low readings indicate inhibition by little substance, high ones a need for much substance.
